# Molecular target: BRAF^V600E protein (Homo sapiens, UniProt P15056, V600E)
# Test: HiBiT cellular BRAF V600E degradation assay
# Type: cell-based
# Details: 24 h incubation; for DC50: A375.10 cells (HiBiT tag knocked in at N-terminal of BRAF V600E), concentration at which 50% of total cellular BRAF V600E is degraded; for Emax: read-out: HiBit 24 h Emax
# [1] = A375.10 cells, Emax = amount of residual protein remaining in the cell after compound treatment
# Chain of BRAF^V600E protein (P15056 whole entry V600E): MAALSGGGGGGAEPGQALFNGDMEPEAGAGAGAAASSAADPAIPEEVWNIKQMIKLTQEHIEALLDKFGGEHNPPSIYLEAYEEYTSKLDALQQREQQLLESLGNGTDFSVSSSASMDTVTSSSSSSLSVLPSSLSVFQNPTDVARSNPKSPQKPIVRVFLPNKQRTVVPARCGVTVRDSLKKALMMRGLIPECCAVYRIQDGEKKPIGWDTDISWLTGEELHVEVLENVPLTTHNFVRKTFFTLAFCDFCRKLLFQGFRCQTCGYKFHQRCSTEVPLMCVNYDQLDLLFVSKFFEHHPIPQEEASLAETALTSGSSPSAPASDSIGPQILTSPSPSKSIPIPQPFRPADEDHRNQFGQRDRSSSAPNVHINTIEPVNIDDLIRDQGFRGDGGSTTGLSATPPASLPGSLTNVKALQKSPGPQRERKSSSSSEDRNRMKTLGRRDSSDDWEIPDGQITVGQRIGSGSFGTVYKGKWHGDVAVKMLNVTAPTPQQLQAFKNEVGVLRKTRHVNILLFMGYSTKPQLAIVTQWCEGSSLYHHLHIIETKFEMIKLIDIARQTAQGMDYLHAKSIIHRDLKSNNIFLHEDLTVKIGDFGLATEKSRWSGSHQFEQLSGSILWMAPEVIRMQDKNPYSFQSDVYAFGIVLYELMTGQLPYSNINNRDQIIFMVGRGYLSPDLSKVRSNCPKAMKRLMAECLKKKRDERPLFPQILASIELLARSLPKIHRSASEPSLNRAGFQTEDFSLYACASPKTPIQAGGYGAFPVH
DC50 [nM],Emax [1] [%],HiBit 24 h Emax [1] [%],Compound
47,12,,"O=C1CCC(Oc2ccc(C3CCN(CC(=O)N4CC5(C4)CN(c4ncc(-c6cnc7[nH]cc(C(=O)c8c(F)ccc(NS(=O)(=O)N9CCCC9)c8F)c7c6)cn4)C5)CC3)cc2)C(=O)N1 (stereo not shown) [Example A119, N-[3-[5-[2-[2-[2-[4-[4-(2,6-Dioxopiperidin-3-yl)oxyphenyl]piperidin-1-yl]acetyl]-2,6-diazaspiro[3.3]heptan-6-yl]pyrimidin-5-yl]-1H-pyrrolo[2,3-b]pyridine-3-carbonyl]-2,4-difluorophenyl]pyrrolidine-1-sulfonamide]"
8,8,,"O=C1CCC(Nc2ccc(C3CCN(CC(=O)N4CC5(C4)CN(c4ncc(-c6cnc7[nH]cc(C(=O)c8c(F)ccc(NS(=O)(=O)N9CCCC9)c8F)c7c6)cn4)C5)CC3)cc2)C(=O)N1 (stereo not shown) [Example A120, N-[3-[5-[2-[2-[2-[4-[4-[(2,6-Dioxopiperidin-3-yl)amino]phenyl]piperidin-1-yl]acetyl]-2,6-diazaspiro[3.3]heptan-6-yl]pyrimidin-5-yl]-1H-pyrrolo[2,3-b]pyridine-3-carbonyl]-2,4-difluorophenyl]pyrrolidine-1-sulfonamide]"
12,8,,"CCN(C)S(=O)(=O)Nc1ccc(F)c(C(=O)c2c[nH]c3ncc(-c4ccc(N5CCN(C(=O)CN6CCC(c7ccc(O[C@H]8CCC(=O)NC8=O)cc7)CC6)CC5)nc4)cc23)c1F [Example A121, 5-[6-[4-[2-[4-[4-[(3S)-2,6-Dioxopiperidin-3-yl]oxyphenyl]piperidin-1-yl]acetyl]piperazin-1-yl]pyridin-3-yl]-3-[3-[[ethyl(methyl)sulfamoyl]amino]-2,6-difluorobenzoyl]-1H-pyrrolo[2,3-b]pyridine]"
32,9,,"CCN(C)S(=O)(=O)Nc1ccc(F)c(C(=O)c2c[nH]c3ncc(-c4ccc(N5CCN(C(=O)CN6CCC(c7ccc(O[C@@H]8CCC(=O)NC8=O)cc7)CC6)CC5)nc4)cc23)c1F [Example A122, 5-[6-[4-[2-[4-[4-[(3R)-2,6-Dioxopiperidin-3-yl]oxyphenyl]piperidin-1-yl]acetyl]piperazin-1-yl]pyridin-3-yl]-3-[3-[[ethyl(methyl)sulfamoyl]amino]-2,6-difluorobenzoyl]-1H-pyrrolo[2,3-b]pyridine]"
10,,8,"CCN(C)S(=O)(=O)Nc1ccc(F)c(C(=O)c2c[nH]c3ncc(-c4cnc(N5CCN(C(=O)NC6CCN(c7ccc(NC8CCC(=O)NC8=O)cc7F)CC6)CC5)nc4)cc23)c1F.O=C(O)C(F)(F)F (stereo not shown) [Example A123, N-[1-[4-[(2,6-Dioxopiperidin-3-yl)amino]-2-fluorophenyl]piperidin-4-yl]-4-[5-[3-[3-[[ethyl(methyl)sulfamoyl]amino]-2,6-difluorobenzoyl]-1H-pyrrolo[2,3-b]pyridin-5-yl]pyrimidin-2-yl]piperazine-1-carboxamide; 2,2,2-trifluoroacetic acid]"

# Reference: patent publication US12559492B2, “BRAF degraders” (C4 Therapeutics, Inc., priority 2020, dated 2026)
